Source: patent US11241501B2, “Anticancer prodrug for overcoming drug resistance” (Korea University Research and Business Foundation, priority 2018, dated 2022)

How the values were obtained:
HepG2 cells [1] = assay: WST cell viability assay; format: cell-based, human
Protocol: (§1) HepG2 cells treated with each compound (5 μM, 24 hr) were co-stained with the mitochondrial marker MitoTracker (green). Boxed regions show co-localization of the test compounds and probe within the mitochondria. […] Experiments were carried out in triplicate and the data shown represent means±SD. **p<0.01. […] HepG2 cells were incubated with BNPP (100 μM) for 2 hr prior to C1 treatment. **p<0.01. […] Cleaved caspase-3 and PARP-1 levels were examined to assess apoptosis induction. C, cleaved.
(§2) Cells were seeded in 24 well plates at 2×10^5 cells per well and were allowed to adhere for at least 24 h, growth medium was replaced with medium containing C1 or its analogues at the indicated concentrations and times, and cell viability was assessed via the WST-1 assay (Roche Diagnostics, Laval, QC, Canada). For the colony formation assay, cells were seeded in 6-well plates. After 24 h, cells were maintained in the presence of each probe or vehicle dimethyl sulfoxide (DMSO) for 10 days. Colonies were fixed with methanol for 10 min and stained with 0.05% crystal violet in 20% ethanol.

MCF7 cells = assay: Colony formation assay; format: cell-based, human; details: 10 days
Protocol: as §2

[2] = system: cancer cells (A549 and HepG2), normal cells (NHDF and IMR90); assay: Cellular uptake of compounds in normal and cancer cells; format: cell-based, human; details: 5 μM, 6 h, A549, HepG2 vs NHDF
Protocol: Cells were treated with 5 μM of each compound for 6 h. Fluorescence intensities were determined using SpectraMAX 13;
(§3) To analyze the cellular fluorescence levels upon compound treatment, cells were seeded in plates 1 day before treatment with the compounds. Cells were then treated with each compound for the indicated dose or time course. After the experiment, cells were washed with ice-cold PBS, trypsinized, and centrifuged. The cell pellet was re-suspended in 300 μL of PBS and then analyzed using a multiplate reader (SpectraMAX I3x). The results were normalized according to the number of cells.

HepG2 cells [3] = assay: Confocal intracellular localization with MitoTracker; format: cell-based, human; details: HepG2, 5 μM, 24 hr
Protocol: as §1
Cells were seeded on glass chamber slides (Nalgene Nunc) followed by probe treatment. After 48 h, the cells were fixed with 4% formaldehyde, and blocked with 2% bovine serum albumin-PBS for 30 min. The mitochondria were stained using MitoTracker™ Green FM (Invitrogen, USA) for 30 min. Fluorescent images were obtained using a confocal laser scanning microscope (Carl Zeiss MicroImaging, Inc., Germany).

MCF7 and MCF7/Dox cells = assay: Intracellular accumulation, fluorescence assay; format: cell-based, human; details: up to 12 hr after treatment
Protocol: (§4) Fluorescence intensities were measured with SpectraMAX 13. Data represent means±SD. **p<0.01. […] Data represent means±SD. **[…]. […] Data represent the mean±SD (n=3 experimental replicates). *p<0.05, **p<0.01. […] MCF7/Dox cells were treated with C1 or C3 as indicated, and the cytosolic (C) and mitochondrial (M) fractions were subjected to immunoblot assay. COX-IV and tubulin were used as markers for the mitochondria and cytosol fractions, respectively.
Mito-tracker (green) was utilized to show the mitochondria;
as §3

[4] = system: MCF7/Dox xenograft tumors; assay: Independent comparative xenograft study of C1-C4; format: in vivo, mice; details: n=5 per group, FIG. 23C
From the text: Tumors are shown (right). […] C1 injection led to a 58% reduction in tumor growth, which was statistically greater than the reductions seen in the case of C2 (16%), C3 (9%), C4 (6%) and DMSO (0%) tested under otherwise identical conditions.

MCF7/Dox cells = assay: Cytochrome c release from mitochondria, immunoblot; format: cell-based, human
Protocol: as §4
Immunoblot analyses were performed using antibodies specific for phosphorylated serine 293 PDH-EI (ab92696), p21^Waf1 (sc-397), cleaved PARP (5625), cleaved caspase-3 (9664), COX-IV (4850), and Cytochrome c (4280). They were purchased from Abcam (Cambridge, UK), Santa Cruz Biotechnology (Texas, USA) or Cell Signaling Technology (Massachusetts, USA). Anti-tubulin antibodies were obtained from Sigma-Aldrich (St. Louis, USA). Briefly, cells were washed twice in ice-cold PBS and lysed in a radioimmunoprecipitation assay buffer containing 50 mM Tris/HCl (pH 7.5), 150 mM NaCl, 0.1% sodium dodecyl sulfate (SDS), 1% Triton X-100, 1% sodium deoxycholate, and protease inhibitor mixture. After sonification, the lysate was centrifuged, and the supernatant was recovered and loaded onto a 12% SDS-polyacrylamide gel for electrophoresis. […]

[5] = system: p21^Waf1 and phosphorylated PDH levels; assay: Immunoblot assay of p21Waf1 and phosphorylated PDH; format: cell-based, human
Protocol: as §1
Immunoblot analyses were performed using antibodies specific for phosphorylated serine 293 PDH-EI (ab92696), p21^Waf1 (sc-397), cleaved PARP (5625), cleaved caspase-3 (9664), COX-IV (4850), and Cytochrome c (4280). They were purchased from Abcam (Cambridge, UK), Santa Cruz Biotechnology (Texas, USA) or Cell Signaling Technology (Massachusetts, USA). Anti-tubulin antibodies were obtained from Sigma-Aldrich (St. Louis, USA). Briefly, cells were washed twice in ice-cold PBS and lysed in a radioimmunoprecipitation assay buffer containing 50 mM Tris/HCl (pH 7.5), 150 mM NaCl, 0.1% sodium dodecyl sulfate (SDS), 1% Triton X-100, 1% sodium deoxycholate, and protease inhibitor mixture. After sonification, the lysate was centrifuged, and the supernatant was recovered and loaded onto a 12% SDS-polyacrylamide gel for electrophoresis.

Row | Structure (SMILES) | IC50 (HepG2 cells [1]; HepG2 cells, WST assay, read-out: IC50 (cytotoxicity)) | cell death in cell-survival assays (HepG2 cells [1]; compared with C3-C6) | colony-forming ability (MCF7 cells) | tumor cell selectivity of cellular uptake [2] | intracellular (mitochondrial) localization (HepG2 cells [3]) | intracellular accumulation in MCF7/Dox versus MCF7 (MCF7 and MCF7/Dox cells) | reduction in tumor growth [4] | cytochrome c release, cleavage of caspase-3 and PARP-1, decrease in cell viability (MCF7/Dox cells) | effect on p21^Waf1 and phosphorylated PDH levels [5]
1 | C#CCC(OC(=O)N[C@H]1C[C@H](O[C@H]2C[C@](O)(C(=O)CO)Cc3c(O)c4c(c(O)c32)C(=O)c2c(OC)cccc2C4=O)O[C@@H](C)[C@H]1O)c1ccc(NC(=O)C(Cl)Cl)cc1 (stereo partly drawn) [C2] | 10.6 ± 1.03 µM | greater cell death in a dose-dependent manner | showed this effect only in the case of the MCF7 cells | no cellular selectivity | no detectable mitochondrial localization | substantially lower level in MCF7/Dox than in MCF7 | 16% | – | –
2 | COc1cccc2c1C(=O)c1c(O)c3c(c(O)c1C2=O)C[C@@](O)(C(=O)CO)C[C@@H]3O[C@H]1C[C@H](NC(=O)OC(Cc2cn(CCCCCC[P+](c3ccccc3)(c3ccccc3)c3ccccc3)nn2)c2ccc(NC(=O)C(C)C)cc2)[C@H](O)[C@H](C)O1 (stereo partly drawn) [C3] | – | – | – | taken up specifically by cancer cells | located predominantly within the mitochondria | – | 9% | fails to evoke these effects | no effect on p21^Waf1 or PDH phosphorylation
3 | C#CCC(OC(=O)N[C@H]1C[C@H](O[C@H]2C[C@](O)(C(=O)CO)Cc3c(O)c4c(c(O)c32)C(=O)c2c(OC)cccc2C4=O)O[C@@H](C)[C@H]1O)c1ccc(NC(=O)C(C)C)cc1 (stereo partly drawn) [C4] | – | – | – | no cellular selectivity | no detectable mitochondrial localization | – | 6% | – | –
